These results are taken from patent US12421253B2 (Mirati Therapeutics, Inc., priority 2020, dated 2025).

In one test the target is T1, KRas^G12V (Homo sapiens, UniProt P01116, G12V).
T1 construct: […]; biotin (biotinylated); purchased Accelegan Inc
Nature of the test: KRas binding assay (TR-FRET displacement of Cy5 labelled tracer). On the technique in general: Time-resolved FRET reads energy transfer from a long-lived donor to a nearby acceptor.

The subject of a further test is PSN1 cells, pERK. Nature of the test: Inhibition of KRas phosphorylation of ERK (Cisbio HTRF Advanced pERK assay). In kind it is cell-based. The settings on record: Homo sapiens, PSN1, 3 h, read-out: Inhibition (HTRF IC50 nM) of KRas-mediated Phosphorylation of ERK, PSN1. The procedure:
(§1) Inhibition of KRas Phosphorylation of ERK (HTRF) by Exemplary Compounds of Formula (I)
(§2) Cisbio HTRF Advanced pERK Assay Catalog #64AERPEH
(§3) • Day 1: Seed 6,000 cells/well −25 μl/well in 384-well white solid bottom plate; RPM1_10% FBS. […] To harvest cells from flask using 0.05% Trypsin/EDTA solution. Add 10 mL of media to stop trypsinizing. Pipette the cells into a conical bottom 50 mL centrifuge tube and centrifuge 5 min×1000 rpm. • 2. Re-suspend the cell pellet in media, take a cell count, and then adjust the cell density using fresh media. • 3. Seed 6,000 cells into cell culture plate with […]. The • 4. Incubate cell plate overnight in a 37° C., 5% CO2 incubator. Compound Titrations • 1. Use Tecan to complete the compound addition. Compounds start from 10 uM top, 3-fold dilution, and 10 doses. The final DMSO concentration is 0.8%. Dispensed 0.2 uM Trametinib as Min control. • 2. Incubate cell plate for 3 hrs in the incubator. Detection with Cisbio pERK HTRF Kit • 1. Dilute 1 volume of 4× lysis buffer with 3 volumes of deionized water. Then, add 100× the blocking reagent. Keep lysis buffer on the ice. • 2. At the end of the compound treatment, flick-off the media. • 3. Add 35 μL of lysis buffer per well using a Multidrop Combi. Then place on a plate agitator shaking at 300 rpm at 4° C. for 40 mins. • 4. Make up the HTRF antibody buffer. For each assay plate, mix 50 μL of d2-conjugate antibody with 950 μL of detection buffer. Similarly, mix 50 μL of Cryptate antibody with 950 μL of detection buffer. Then mix the two diluted antibodies together. • 5. Dispense 3.4 μL the antibody buffer to wells of an empty assay plate. Seal the plate and centrifuge plate 30 sec×1000 rpm. • 6. At the end of the 4° C. lysis, centrifuge the lysate plates 3 mins×1500 rpm. • 7. Use the Bravo to transfer 13.6 μL of lysate from cell culture plate to assay plate. Then incubate assay plate for 2 hrs at room temperature. • 8. At the end of incubation, read plate on the Envision after centrifuging plate 30 sec×1000 rpm.

A further test addresses T2, KRas^G12D (Homo sapiens, UniProt P01116, G12D).
T2 construct: […]; biotin (biotinylated); purchased Accelegan Inc
Nature of the test: KRas binding assay (TR-FRET displacement of Cy5 labelled tracer).

The next test has as its target T3, KRas^G12R (Homo sapiens, UniProt P01116, G12R).
T3 construct: […]; biotin (biotinylated); purchased Accelegan Inc
The description is as above.

The subject of a further test is H727 cells, pERK. Nature of the test: Inhibition of KRas phosphorylation of ERK (Cisbio HTRF Advanced pERK assay). Type of test: cell-based. The settings on record: Homo sapiens, NCI-H727, 3 h, read-out: Inhibition (HTRF IC50 nM) of KRas-mediated Phosphorylation of ERK, H727. The procedure: as §1, §2, §3
In another test the test system is ASPC1 cells, pERK. Described as above. In kind it is cell-based. The following applies: Homo sapiens, ASPC1, 3 h, AsPC-1 cells, read-out: Inhibition (HTRF IC50 nM) of KRas-mediated Phosphorylation of ERK, AsPC-1. Here is the method: as §1, §2, §3
In another test the test system is MKN1 cells, pERK. Described as above. In kind it is cell-based. The settings on record: Homo sapiens, MKN-1, 3 h, read-out: Inhibition (HTRF IC50 nM) of KRas-mediated Phosphorylation of ERK, MKN1. The procedure:
as §1, §2, §3

T1 sequence (P01116 1-169 isoform P01116-2 G12V): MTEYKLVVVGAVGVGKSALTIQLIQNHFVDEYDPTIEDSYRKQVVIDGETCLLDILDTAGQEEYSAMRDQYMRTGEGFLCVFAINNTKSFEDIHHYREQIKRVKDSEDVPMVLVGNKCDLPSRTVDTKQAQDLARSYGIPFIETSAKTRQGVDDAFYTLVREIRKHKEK
T3 sequence (P01116 1-169 isoform P01116-2 G12R): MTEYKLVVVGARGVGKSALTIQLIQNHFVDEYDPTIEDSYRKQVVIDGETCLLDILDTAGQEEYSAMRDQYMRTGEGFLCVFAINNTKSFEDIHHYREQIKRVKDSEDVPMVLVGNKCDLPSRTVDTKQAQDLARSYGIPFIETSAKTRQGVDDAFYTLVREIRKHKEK
T2 sequence (P01116 1-169 isoform P01116-2 G12D): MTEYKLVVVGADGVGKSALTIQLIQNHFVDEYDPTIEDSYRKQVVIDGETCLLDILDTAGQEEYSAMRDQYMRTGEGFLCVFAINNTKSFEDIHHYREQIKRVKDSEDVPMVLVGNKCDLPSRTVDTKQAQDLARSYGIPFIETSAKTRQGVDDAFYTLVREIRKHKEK
Description for KRas^G12D: (§4) The ability of a compound to bind to KRas was measured using a TR-FRET displacement assay. […] After a 60-minute incubation at room temperature, the reaction was measured using a BMG LABTECH CLARIO star Plus via TR-FRET. […] The POC values were fit to a 4-parameter IC50 equation and the IC50 value reported.
Description for KRas^G12R: as §4
Description for KRas^G12V: as §4

One may read the IC50 as the concentration that inhibits the measured activity by half. Consider `Oc1cc(N2CCc3c(nc(OC[C@@]45CCCN4C[C@H](F)C5)nc3N3CC4CC(O)CC3C4)C2)c2c(Cl)c(F)ccc2c1` (single isomer, unassigned) [Example 76], for which the IC50 at KRas^G12V came out at 7 nM; in the test with PSN1 cells, pERK, 5630 nM; at KRas^G12D it was 37 nM; at KRas^G12R, 7 nM.

As to `Oc1cc(N2CCc3c(nc(OC[C@@]45CCCN4C[C@H](F)C5)nc3N3CC4CC(O)CC3C4)C2)c2c(Br)c(F)ccc2c1` (single isomer, unassigned) [Example 213], the 50% inhibitory concentration (IC50) at KRas^G12V amounted to 3 nM; with PSN1 cells, pERK, 6500 nM; on KRas^G12D it was 11 nM; on KRas^G12R, 3 nM.

For `Oc1cc(N2CCc3c(nc(OC[C@@]45CCCN4C[C@H](F)C5)nc3N3CCCC4(CC(O)C4)C3)C2)c2c(Cl)c(F)ccc2c1` (stereo partly drawn) [Example 71, 6-(7-(8-chloro-7-fluoro-3-hydroxynaphthalen-1-yl)-2-(((2R,7aS)-2-fluorohexahydro-1H-pyrrolizin-7a-yl)methoxy)-5,6,7,8-tetrahydropyrido[3,4-d]pyrimidin-4-yl)-6-azaspiro[3.5]nonan-2-ol], the IC50 was at most 2 nM on KRas^G12V; 848 nM in the test with H727 cells, pERK; 1170 nM in the test with ASPC1 cells, pERK; 6040 nM with PSN1 cells, pERK; 211 nM in the test with MKN1 cells, pERK; 4 nM at KRas^G12D. At KRas^G12R, this molecule showed an IC50 of at most 2 nM.

In the case of `OCC1COCCN(c2nc(OC[C@@]34CCCN3C[C@H](F)C4)nc3c2CCN(c2cc(O)cc4ccc(F)c(Cl)c24)C3)C1` (stereo partly drawn) [Example 73, 5-chloro-6-fluoro-4-(2-(((2R,7aS)-2-fluorohexahydro-1H-pyrrolizin-7a-yl)methoxy)-4-(6-(hydroxymethyl)-1,4-oxazepan-4-yl)-5,6-dihydropyrido[3,4-d]pyrimidin-7(8H)-yl)naphthalen-2-ol], the IC50 on KRas^G12V was 3 nM; in the test with H727 cells, pERK, 871 nM; in the test on ASPC1 cells, pERK, 661 nM; with PSN1 cells, pERK it was 6380 nM; in the test on MKN1 cells, pERK it was 85 nM; at KRas^G12D, 5 nM. The molecule also had an IC50 at KRas^G12R of 3 nM.

On to `CCc1c(F)ccc2cc(O)cc(N3CCc4c(nc(OC[C@@]56CCCN5C[C@H](F)C6)nc4N4CC5CC(O)C5C4)C3)c12` (stereo partly drawn) [Example 177, 3-(7-(8-ethyl-7-fluoro-3-hydroxynaphthalen-1-yl)-2-(((2R,7aS)-2-fluorohexahydro-1H-pyrrolizin-7a-yl)methoxy)-5,6,7,8-tetrahydropyrido[3,4-d]pyrimidin-4-yl)-3-azabicyclo[3.2.0]heptan-6-ol], for which the IC50 at KRas^G12V was 9 nM; with H727 cells, pERK, 1380 nM; in the test with ASPC1 cells, pERK, 1310 nM; in the test on PSN1 cells, pERK, at least 10000 nM; with MKN1 cells, pERK, 479 nM; at KRas^G12D, 19 nM. In addition, at KRas^G12R, the IC50 was found to be 15 nM.

Regarding `CCc1c(F)ccc2cc(O)cc(N3CCc4c(nc(OC[C@@]56CCCN5C[C@H](F)C6)nc4N4CCCn5nncc5C4)C3)c12` [Example 178, 4-(4-(7,8-dihydro-4H-[1,2,3]triazolo[1,5-a][1,4]diazepin-5(6H)-yl)-2-(((2R,7aS)-2-fluorotetrahydro-1H-pyrrolizin-7a(5H)-yl)methoxy)-5,8-dihydropyrido[3,4-d]pyrimidin-7(6H)-yl)-5-ethyl-6-fluoronaphthalen-2-ol], the IC50 at KRas^G12V is at most 2 nM; with H727 cells, pERK, 68 nM; with ASPC1 cells, pERK, 17 nM; with PSN1 cells, pERK, 7620 nM; in the test with MKN1 cells, pERK it was 20 nM; at KRas^G12D, at most 2 nM. The IC50 at KRas^G12R is at most 2 nM.

For `CCc1c(F)ccc2cc(O)cc(N3CCc4c(nc(OC[C@@]56CCCN5C[C@H](F)C6)nc4N4CC5CC(O)CC(C5)C4)C3)c12` (stereo partly drawn) [Example 179, 3-(7-(8-ethyl-7-fluoro-3-hydroxynaphthalen-1-yl)-2-(((2R,7aS)-2-fluorohexahydro-1H-pyrrolizin-7a-yl)methoxy)-5,6,7,8-tetrahydropyrido[3,4-d]pyrimidin-4-yl)-3-azabicyclo[3.3.1]nonan-7-ol], the IC50 on KRas^G12V was 101 nM; in the test on H727 cells, pERK, 4790 nM; in the test on ASPC1 cells, pERK it was 5170 nM; in the test on PSN1 cells, pERK, at least 10000 nM; in the test on MKN1 cells, pERK, 1210 nM; at KRas^G12D, 207 nM. At KRas^G12R, this molecule yielded an IC50 of 80 nM.

Turning to `CCc1c(F)ccc2cc(O)cc(N3CCc4c(nc(OC[C@@]56CCCN5C[C@H](F)C6)nc4N4CCCc5nc(N)sc5C4)C3)c12` [Example 181, 4-(4-(2-amino-7,8-dihydro-4H-thiazolo[5,4-c]azepin-5(6H)-yl)-2-(((2R,7aS)-2-fluorohexahydro-1H-pyrrolizin-7a-yl)methoxy)-5,6-dihydropyrido[3,4-d]pyrimidin-7(8H)-yl)-5-ethyl-6-fluoronaphthalen-2-ol], the IC50 was at most 2 nM on KRas^G12V; 191 nM in the test with H727 cells, pERK; 228 nM with ASPC1 cells, pERK; at least 10000 nM with PSN1 cells, pERK; 90 nM in the test with MKN1 cells, pERK; at most 2 nM on KRas^G12D. For the same molecule, the IC50 on KRas^G12R was at most 2 nM.

Turning to `CN1CCC[C@H]1COc1nc2c(c(N3CCCC4(CNS(=O)(=O)N4)C3)n1)CCN(c1cccc3cccc(Cl)c13)C2` (stereo partly drawn) [Example 208, 9-[7-(8-chloro-1-naphthyl)-2-[[(2S)-1-methylpyrrolidin-2-yl]methoxy]-6,8-dihydro-5H-pyrido[3,4-d]pyrimidin-4-yl]-2λ6-thia-1,3,9-triazaspiro[4.5]decane 2,2-dioxide], the IC50 on KRas^G12V worked out at 197 nM; in the test with H727 cells, pERK, 6940 nM; with ASPC1 cells, pERK, 4050 nM; on KRas^G12D, 136 nM; on KRas^G12R, 350 nM.

For `CN(C)C(=O)c1cc2n(n1)CCCN(c1nc(OC[C@@H]3CCCN3C)nc3c1CCN(c1cccc4cccc(Cl)c14)C3)C2` [Example 209, (S)-5-(7-(8-chloronaphthalen-1-yl)-2-((1-methylpyrrolidin-2-yl)methoxy)-5,6,7,8-tetrahydropyrido[3,4-d]pyrimidin-4-yl)-N,N-dimethyl-5,6,7,8-tetrahydro-4H-pyrazolo[1,5-a][1,4]diazepine-2-carboxamide], the IC50 on KRas^G12V is 1900 nM; with H727 cells, pERK, 8520 nM; in the test on ASPC1 cells, pERK it was 7200 nM; at KRas^G12D, 1120 nM; on KRas^G12R, 4140 nM.

Consider `CN1CCC[C@H]1COc1nc2c(c(N3CCCC4(CNC(=O)N4)C3)n1)CCN(c1cccc3cccc(Cl)c13)C2` (stereo partly drawn) [Example 210, 7-(7-(8-chloronaphthalen-1-yl)-2-(((S)-1-methylpyrrolidin-2-yl)methoxy)-5,6,7,8-tetrahydropyrido[3,4-d]pyrimidin-4-yl)-1,3,7-triazaspiro[4.5]decan-2-one], for which the IC50 was 497 nM at KRas^G12V; at least 10000 nM in the test with H727 cells, pERK; at least 10000 nM with ASPC1 cells, pERK; 579 nM at KRas^G12D; 699 nM at KRas^G12R.

On to `CN1CCC[C@H]1COc1nc2c(c(N3CCCC4(C3)NC(=O)NC4=O)n1)CCN(c1cccc3cccc(Cl)c13)C2` (stereo partly drawn) [Example 211, 9-[7-(8-chloro-1-naphthyl)-2-[[(2S)-1-methylpyrrolidin-2-yl]methoxy]-6,8-dihydro-5H-pyrido[3,4-d]pyrimidin-4-yl]-1,3,9-triazaspiro[4.5]decane-2,4-dione], for which the IC50 on KRas^G12V is 38 nM; in the test on H727 cells, pERK, 2880 nM; in the test with ASPC1 cells, pERK, 4890 nM; at KRas^G12D, 101 nM; on KRas^G12R, 34 nM.
